From ChEMBL document CHEMBL5729430, “ACLY inhibitors and uses thereof” (2022)

Target: T1, ATP-citrate synthase (Homo sapiens, UniProt P53396)
T1 sequence (P53396 whole entry): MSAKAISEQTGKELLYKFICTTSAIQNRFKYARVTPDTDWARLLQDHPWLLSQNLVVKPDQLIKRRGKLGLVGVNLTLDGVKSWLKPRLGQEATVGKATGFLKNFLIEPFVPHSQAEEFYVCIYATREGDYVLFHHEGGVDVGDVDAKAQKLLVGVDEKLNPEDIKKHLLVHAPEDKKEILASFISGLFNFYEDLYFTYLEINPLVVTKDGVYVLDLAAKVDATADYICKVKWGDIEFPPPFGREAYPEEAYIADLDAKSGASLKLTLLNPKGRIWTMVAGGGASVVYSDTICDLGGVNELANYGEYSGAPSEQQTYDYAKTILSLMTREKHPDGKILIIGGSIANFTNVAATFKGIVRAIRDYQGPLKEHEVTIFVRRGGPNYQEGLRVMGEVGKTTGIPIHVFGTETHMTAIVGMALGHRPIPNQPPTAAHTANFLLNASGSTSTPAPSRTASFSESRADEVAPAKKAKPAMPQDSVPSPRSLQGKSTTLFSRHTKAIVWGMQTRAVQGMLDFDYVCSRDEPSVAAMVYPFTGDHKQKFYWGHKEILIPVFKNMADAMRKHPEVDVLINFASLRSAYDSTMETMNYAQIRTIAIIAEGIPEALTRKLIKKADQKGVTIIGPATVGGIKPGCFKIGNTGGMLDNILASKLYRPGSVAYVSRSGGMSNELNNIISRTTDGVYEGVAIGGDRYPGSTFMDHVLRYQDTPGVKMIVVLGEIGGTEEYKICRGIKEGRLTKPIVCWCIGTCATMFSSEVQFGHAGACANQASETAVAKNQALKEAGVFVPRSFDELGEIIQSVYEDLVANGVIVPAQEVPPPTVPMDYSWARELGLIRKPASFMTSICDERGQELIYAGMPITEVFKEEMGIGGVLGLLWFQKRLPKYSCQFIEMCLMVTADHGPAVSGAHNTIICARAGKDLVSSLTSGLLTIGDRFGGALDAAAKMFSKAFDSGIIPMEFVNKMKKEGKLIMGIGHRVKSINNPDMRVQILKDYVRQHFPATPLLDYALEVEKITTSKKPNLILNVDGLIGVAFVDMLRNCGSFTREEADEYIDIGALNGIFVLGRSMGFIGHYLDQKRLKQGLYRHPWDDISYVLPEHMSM
Assay: ADP-Glo Assay: Compounds of the present invention were evaluated in an ADP-GLO assay as follows:a) Dilute cpd 1:3 in succession in DMSO by hand for each cpds for 12 ptsb) Add 0.1 μL diluted cpd solution to assay plate, each dose with 2 replicatesc) Centrifuge 1000 RPM for 1 mind) Add 5 μL ACL working solution to 384-well assay plate, centrifuge 1000 RPM for 1 mine) Incubate at 25° C. for 15 minf) Add 5 μL substrate working solution to initiate reactiong) Final ACL reaction concentrations: 3 nM ACL, 15 μM ATP, 3 μM CoA, 300 μM Citrate, 0.01% Brij35, 4 mM DTT, 1% DMSO;h) Reference final conc: 30 uM starting Conc, 3× dilution, 11+0 points. Test cpd conc: 30/100 uM starting Conc, 3× dilution, 11+0 points.i) Incubate at 25° C. for 60 minj) Add 10 μL ADP Glo reagent, centrifuge 1000 RPM for 1 mink) Incubate at 25° C. for 40 minl) Add 20 μL kinase detection reagent, centrifuge 1000 RPM for 1 minm) Incubate at 25° C. for 40 minn) Read on Envision for US LUM as RLU.

IC50	Structure (SMILES)
> 20 µM	O=S(=O)(c1cc(Cl)cc(Cl)c1)n1c(-c2cncnc2)cc2cc(Cl)ccc21
< 0.5 µM	O=C(O)c1cc2cc(Cl)ccc2n1S(=O)(=O)c1cc(Cl)cc(Cl)c1
